Test results published in PubChem BioAssay AID1996.
Values after ≈ are worked out from the molar mass of the structure shown.

Settings: buffer; pH 7.4; 200.0 µM

solubility kinetic	SMILES
32.4 µg/mL (≈ 92.7 µM)	O=C(N[C@@H](Cc1ccccc1)C(=O)OCc1ccccc1)c1ccco1
35.2 µg/mL (≈ 144 µM)	Cn1ccnc1C(=O)Cc1ccc([N+](=O)[O-])cc1
39.1 µg/mL (≈ 126 µM)	CC(=O)OC(C(=O)NC1CCCCC1)c1ccccc1Cl (configuration not stated)
5.4 µg/mL (≈ 17.5 µM)	Cc1ccc(CN(C)CC(=O)Nc2ccc3c(c2)CCC3)cc1
51 µg/mL (≈ 127 µM)	O=C1N/C(=N/S(=O)(=O)Cc2ccccc2)S/C1=C/c1ccc2c(c1)OCO2
> 44.7 µg/mL	Cc1cc(=O)c(C(=O)O)nn1-c1cccc(C(F)(F)F)c1
< 0.7 µg/mL	CC(C)(C)C(=O)OCc1nc(-c2ccc3c(c2)OCCO3)cs1
> 69.1 µg/mL	CCOC(=O)[C@H](CCc1ccccc1)N[C@H]1CCc2ccccc2N(CC(=O)O)C1=O.Cl
46.2 µg/mL (≈ 131 µM)	Cn1c(N)c(C(=O)COC(=O)c2ccc(Cl)nc2)c(=O)n(C)c1=O
< 0.3 µg/mL	O=C(Nc1cccnc1)c1ccc(CSc2ccccc2)cc1
> 28.4 µg/mL	N#Cc1ccc(N2CCOCC2)nc1
> 47.8 µg/mL	COc1ccc(C(C)=O)cc1CN1C(=O)NC(CC(C)C)C1=O (configuration not stated)
6 µg/mL (≈ 14.5 µM)	CCOc1ccc(S(=O)(=O)N2CCN(C(=O)c3cc4ccccc4o3)CC2)cc1
> 51.7 µg/mL	COc1cc(OC)c(C(=O)O/N=C(\N)c2ccc(C)cc2)cc1OC
> 41.5 µg/mL	Cc1ccc(S(=O)(=O)NCc2ccccn2)c(C)c1
0.8 µg/mL (≈ 2.26 µM)	CCCCc1ccc(NC(=S)N2CCN(c3ccccn3)CC2)cc1
0.7 µg/mL (≈ 2.05 µM)	Cn1c(/C=C/c2cccc(Br)c2)nc2ccccc2c1=O
< 0.3 µg/mL	Cc1ccc(C(=O)Nc2ccccc2C(=O)Nc2ccccn2)cc1Cl
> 47.2 µg/mL	O=C(Nc1ccc(CN2CCOCC2)cc1)c1ccc(F)cc1
> 50.5 µg/mL	O=C(COC(=O)c1ccc(Cl)nc1)NCCc1ccc(F)cc1
> 57.4 µg/mL	CCOC(=O)C1=C(c2ccccc2)NC(=O)NC1c1cccc(OC)c1OC (configuration not stated)
> 53.6 µg/mL	Cc1ccc(/C=C/C(=O)O)cc1S(=O)(=O)N1CCCc2ccccc21
4.6 µg/mL (≈ 14.1 µM)	N#C/C(=C\Nc1ccc2c(c1)OCCO2)C(=O)NCc1ccco1
39.6 µg/mL (≈ 125 µM)	Cc1ccc(C)c(-c2cc(C(=O)NC3CC3)c3ccccc3n2)c1

solubility kinetic	SMILES
> 46.9 µg/mL	CCOC(=O)N1CCC(NS(=O)(=O)c2ccccc2)CC1
> 46.1 µg/mL	O=C(Nc1ncc([N+](=O)[O-])s1)C1COc2ccccc2O1 (configuration not stated)
5.4 µg/mL (≈ 19.3 µM)	CC1CCCC(NC(=S)NC(=O)c2ccco2)C1C (configuration not stated)
> 67 µg/mL	CC(C)[C@H](NC(=O)c1ccccc1Cl)C(=O)OCC(=O)NCc1ccc2c(c1)OCO2
3.3 µg/mL (≈ 7.31 µM)	CCOc1ncccc1C(=O)N(CCC(C)C)c1c(N)n(Cc2ccccc2)c(=O)[nH]c1=O
1.7 µg/mL (≈ 5.13 µM)	CC(=O)c1ccc(NS(=O)(=O)c2ccc(C(C)(C)C)cc2)cc1
> 37.1 µg/mL	O=C(Nc1ccccc1)NC1CCCCNC1=O (configuration not stated)
12.3 µg/mL (≈ 36.4 µM)	CCOC(=O)C1CCN(S(=O)(=O)c2ccc(Cl)s2)CC1
1.8 µg/mL (≈ 5.71 µM)	Cc1cc(C)c(S(=O)(=O)N2CCCc3ccccc32)c(C)c1
6.3 µg/mL (≈ 19 µM)	Cc1ccc(NS(=O)(=O)c2ccc3c(c2)n(C)c(=O)n3C)cc1
14.9 µg/mL (≈ 56.4 µM)	c1ccc2c(c1)nc(N1CCOCC1)c1ccccc12
8 µg/mL (≈ 28.2 µM)	O=C(c1cccc([N+](=O)[O-])c1)c1ccc2[nH]c(=O)[nH]c2c1
> 36.5 µg/mL	O=C1CCCN1S(=O)(=O)c1ccc(F)cc1
44.5 µg/mL (≈ 124 µM)	O=C(N1CCOCC1)N1CCN(S(=O)(=O)c2ccc(Cl)cc2)C1
> 46.3 µg/mL	CC1C(=O)Nc2ccc(S(=O)(=O)N3CCCCCC3)cc21 (configuration not stated)
> 39.9 µg/mL	COC(c1ccccc1)c1nc2ccccc2[nH]c1=O (configuration not stated)
> 53.3 µg/mL	CCCCn1c(=S)[nH]c2cc(S(=O)(=O)N3CCOCC3)ccc21
> 42.5 µg/mL	Cc1ccc(SCc2cn3c(C)cc(C)nc3n2)cc1
> 33 µg/mL	Clc1nccc(NCc2ccccc2)n1
> 17.3 µg/mL	Cc1nnc(N)s1
6.2 µg/mL (≈ 19.7 µM)	O=C(Nc1cccc(-c2nc3ccccc3[nH]2)c1)c1ccccn1
14.2 µg/mL (≈ 47.4 µM)	CCCNC(=O)c1oc2ccc3c(c2c1C)C=CC(C)(C)O3
< 0.2 µg/mL	O=C(CSc1nc(-c2ccccc2)cc(=O)[nH]1)Nc1ccccc1F
> 39.2 µg/mL	Cc1cccc(NC(=O)NCCN2CCCCC2)c1

solubility kinetic	SMILES
> 59.3 µg/mL	O=C(CN1C(=O)NC2(CCCc3ccccc32)C1=O)NCCc1ccc(F)cc1 (configuration not stated)
12.7 µg/mL (≈ 43.6 µM)	Cc1ccc(C2CC(=O)C=C(NCc3ccccc3)C2)cc1 (configuration not stated)
32.4 µg/mL (≈ 139 µM)	CCOC(=O)c1c(C)nc2cc(C)cc(C)n12
44.2 µg/mL (≈ 140 µM)	CN1CCN(S(=O)(=O)c2ccccc2)C(c2ccccc2)C1 (configuration not stated)
> 50.9 µg/mL	COc1ccc(C2C(C(C)=O)=C(O)C(=O)N2c2ccc(O)cc2)cc1 (configuration not stated)
38 µg/mL (≈ 147 µM)	Cc1cccc(/C(N)=N/OC(=O)c2ccoc2C)c1
< 0.3 µg/mL	Cc1nc(SC(C)C(=O)NC2CCCCC2C)c2c(C)c(C)sc2n1 (configuration not stated)
> 59.6 µg/mL	CN(Cc1ccccc1)C(=O)c1ccc2c(c1)S(=O)(=O)N=C1CCCCCN12
1.8 µg/mL (≈ 5.33 µM)	O=C(NCCNc1ccc([N+](=O)[O-])cc1Cl)c1ccccc1F
39.6 µg/mL (≈ 148 µM)	CC(=O)/C=C\c1ccc(OC(=O)c2cccnc2)cc1
6.7 µg/mL (≈ 20.6 µM)	CC(=O)c1ccc(-c2ccc(C(=O)NC3CCCCCC3)o2)cc1
35.6 µg/mL (≈ 127 µM)	COc1cc(CN2CCCCCC2)cc([N+](=O)[O-])c1O
13.9 µg/mL (≈ 64 µM)	CC(=O)c1sc(-c2ccccc2)nc1C
> 50.1 µg/mL	Cc1ccnc(SC2CC(=O)N(c3ccc(Cl)cc3)C2=O)n1 (configuration not stated)
2.4 µg/mL (≈ 5.57 µM)	Cc1ccc(C)c(OCCC(=O)Nc2cc(S(=O)(=O)N3CCCCC3)ccc2C)c1
12.4 µg/mL (≈ 39.5 µM)	N#Cc1nc(-c2ccc(F)cc2)oc1N1CCC(C(N)=O)CC1
37.8 µg/mL (≈ 124 µM)	COC(=O)c1ccc(COC(=O)c2cccnc2Cl)cc1
18.4 µg/mL (≈ 66.3 µM)	COc1ccc(NC(=O)Oc2ccccc2)cc1Cl
28.8 µg/mL (≈ 142 µM)	Cc1cc(NC(=O)c2ccccc2)no1
> 31.2 µg/mL	O=Cc1ccc2ccc3cccnc3c2n1
> 42.9 µg/mL	COc1ccc2[nH]cc(C(=O)C(=O)N3CCCCC3)c2c1
5.6 µg/mL (≈ 20.8 µM)	CN1CC(c2ccccc2)Oc2ccccc2C1=S (configuration not stated)
43.6 µg/mL (≈ 139 µM)	COC(=O)/N=C(/Cc1ccc(OC)cc1)c1ccc(OC)cc1
3 µg/mL (≈ 8.71 µM)	Cc1cccc(NC(=O)c2ccccc2C(=O)Nc2cccc(C)c2)c1

solubility kinetic	SMILES
> 37.1 µg/mL	Nc1ccccc1C(=O)NC1CCCCNC1=O (configuration not stated)
46.6 µg/mL (≈ 142 µM)	O=C(NCCNC(=O)c1cc(Cl)ccc1Cl)c1ccco1
> 48.7 µg/mL	COc1ccc(CN(C)C(=O)c2ccc3ccccc3n2)cc1F
21.6 µg/mL (≈ 74.7 µM)	CCOC(=O)c1ccc(Nc2c(OCC)c(=O)c2=O)cc1
1.4 µg/mL (≈ 5.03 µM)	CC(=O)/C(=C(/O)c1ccccc1)c1nc2ccccc2[nH]1
> 37.8 µg/mL	O=C(c1ccccc1)N1CCCCC(Cl)C1=O (configuration not stated)
> 46.8 µg/mL	O=S(=O)(NC(=S)c1ccccc1)c1ccc(Cl)cc1
15.9 µg/mL (≈ 42.2 µM)	COc1ccc(NC(=O)COc2ccc3c(c2)CCC3)cc1S(N)(=O)=O
> 34.1 µg/mL	Cc1cc(=O)c2ccc(C(F)(F)F)cc2[nH]1
1.1 µg/mL (≈ 3.49 µM)	CCOC(=O)c1[nH]c(C)c(C(=O)OCc2ccc(C)cc2)c1C
34.7 µg/mL (≈ 95.2 µM)	COc1ccc(C2Nc3ccccc3NC3=C2C(=O)CC(C)(C)C3)cc1O (configuration not stated)
0.4 µg/mL	Br.Cc1ccnc(Nc2nc(-c3ccccc3)cs2)c1
> 34.4 µg/mL	N#C/C(=C\c1ccc[nH]1)C(=O)N1CCCCC1
35.1 µg/mL (≈ 136 µM)	CCN(CC)S(=O)(=O)c1ccc(OC)c(N)c1
> 36.6 µg/mL	CC(=O)Nc1cc2c3c(c1)CCC(=O)N3CCC2
43.1 µg/mL	C#CCOC(=O)C[N+](C)(C)CC#Cc1ccccc1.[Cl-]
> 51.4 µg/mL	CC(=O)NC(CC(=O)OCc1ccc([N+](=O)[O-])cc1)c1ccccc1 (configuration not stated)
1.7 µg/mL (≈ 6.04 µM)	CC(C)c1cccc(C(C)C)c1NC(=O)c1ccccc1
> 52.3 µg/mL	CCCN(CC1CCCO1)C(=O)CCc1nnc(-c2cc(C)on2)o1 (configuration not stated)
> 48.8 µg/mL	O=C(C1CCCO1)N(c1ccc(F)cc1)C1C=CS(=O)(=O)C1 (configuration not stated)
> 47.3 µg/mL	Cc1nc2ccccc2c(=O)n1NC(=O)c1c(F)cccc1F
28.9 µg/mL (≈ 99.2 µM)	Cc1ccc(C)c(S(=O)(=O)c2c(C)cc(C)[nH]c2=O)c1
> 58.3 µg/mL	O=[N+]([O-])c1cc(CS(=O)(=O)Oc2ccc(Cl)cc2)c(O)c([N+](=O)[O-])c1
36.2 µg/mL (≈ 128 µM)	CNC(=O)COC(=O)CCC(=O)c1ccc(Cl)cc1

solubility kinetic	SMILES
> 37 µg/mL	Cc1ccc(CC(=O)NC2CCN(C)CC2)cc1
19.9 µg/mL (≈ 41.4 µM)	COc1ccc(NC(=O)CSc2nc3c(c(-c4cccs4)c2C#N)CN(C)CC3)cc1OC
> 54.1 µg/mL	COC(=O)C(Cc1ccc(O)cc1)NC(=O)CCNC(=O)c1ccco1 (configuration not stated)
< 0.7 µg/mL	O=C(Nc1ccccc1C(F)(F)F)c1cc2ccccc2o1
35.6 µg/mL (≈ 124 µM)	COC(=O)c1cc(-n2cccc2)ccc1N1CCOCC1
7 µg/mL (≈ 20.1 µM)	COc1ccc(CC(=O)OCC(=O)Nc2cc(Cl)ccc2C)cc1
48.2 µg/mL (≈ 133 µM)	Cc1cccc(NC(=O)c2ccc(S(=O)(=O)N3CCOCC3)cc2)n1
18.1 µg/mL (≈ 59.1 µM)	COc1ccc(C2NC(=O)NC3=C2CCc2ccccc23)cc1 (configuration not stated)
30.6 µg/mL (≈ 101 µM)	Cc1c(Cl)cccc1NC(=O)C1COc2ccccc2O1 (configuration not stated)
5.1 µg/mL (≈ 15.4 µM)	Cc1onc(-c2c(Cl)cccc2Cl)c1C(=O)c1ccccc1
34.8 µg/mL (≈ 107 µM)	COCCn1c(C)c(C)c2c(NCCc3ccccc3)ncnc21
14.6 µg/mL (≈ 40.1 µM)	COc1ccccc1CNC(=O)COC(=O)c1cc(C)nc2ccccc12
> 45.7 µg/mL	COc1ccc(N2CC(C(=O)N3CCOCC3)CC2=O)cc1 (configuration not stated)
37.8 µg/mL (≈ 104 µM)	COc1ccc(NC(=O)C2=CN3CCS(=O)(=O)N=C3C=C2)c(OC)c1
15.1 µg/mL (≈ 42.5 µM)	COc1ccc(OC)c(/C=C/C(=O)OCC(=O)NCc2ccccc2)c1
23.2 µg/mL (≈ 76.5 µM)	Cc1ccc(CSCC(=O)NCc2ccc(F)cc2)cc1
> 44.9 µg/mL	Cc1c([N+](=O)[O-])c([N+](=O)[O-])nn1CC(=O)N1CCOCC1
28.4 µg/mL (≈ 104 µM)	O=C(CN1CCCC1)Nc1cccc(Cl)c1Cl
> 38.6 µg/mL	CCOC(=O)/C(O)=C(\C#N)c1nc2ccccc2[nH]1
4.8 µg/mL (≈ 14 µM)	Cc1ccc(S(=O)(=O)CC(=O)Nc2ccc(F)c(F)c2F)cc1

SMILES	solubility kinetic
CC(C)OP(=O)(O)NC(=O)c1ccccc1	> 36.5 µg/mL
